Results from BindingDB's records for patent US12071420 (Hoffmann-La Roche, 2024).

Biological target: Cannabinoid receptor 2 (Homo sapiens, UniProt P34972)
Assay: Radioligand Binding Assay
Protocol: The affinity of the compounds of the invention for cannabinoid CB1 receptors was determined using recommended amounts of membrane preparations (PerkinElmer) of human embryonic kidney (HEK) cells expressing the human CNR1 or CNR2 receptors in conjunction with 1.5 or 2.6 nM [3H]-CP-55,940 (Perkin Elmer) as radioligand, respectively. Binding was performed in binding buffer (50 mM Tris, 5 mM MgCl2, 2.5 mM EDTA, and 0.5% (wt/vol) fatty acid free BSA, pH 7.4 for CB1 receptor and 50 mM Tris, 5 mM MgCl2, 2.5 mM EGTA, and 0.1% (wt/vol) fatty acid free BSA, pH 7.4 for CB2 receptor) in a total volume of 0.2 ml for 1 h at 30° C. shaking. The reaction was terminated by rapid filtration through microfiltration plates coated with 0.5% polyethylenimine (UniFilter GF/B filter plate; Packard). Bound radioactivity was analyzed for Ki using nonlinear regression analysis (Activity Base, ID Business Solution, Limited), with the Kd values for [3H]CP55,940 determined from saturation experiments. The compounds of formula (I) show an excellent affinity for the CB2 receptor.

Cannabinoid receptor 2, sequence (P34972 whole entry): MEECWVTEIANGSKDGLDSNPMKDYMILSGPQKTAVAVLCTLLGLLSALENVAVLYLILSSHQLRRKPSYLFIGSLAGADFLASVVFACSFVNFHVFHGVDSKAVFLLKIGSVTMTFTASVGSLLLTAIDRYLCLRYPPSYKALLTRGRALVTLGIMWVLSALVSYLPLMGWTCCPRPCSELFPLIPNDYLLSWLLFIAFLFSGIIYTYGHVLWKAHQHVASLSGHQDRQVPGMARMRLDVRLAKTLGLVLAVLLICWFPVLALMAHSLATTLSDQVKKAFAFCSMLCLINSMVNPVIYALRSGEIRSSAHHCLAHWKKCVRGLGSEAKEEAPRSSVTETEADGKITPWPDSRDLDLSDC

Ki: 14 nM
Compound: COC1CN(c2ccc(C(=O)N[C@H](COCF)CC(C)C)nc2OCC2CC2)C1 [US12071420, Example 25]
